Experimental data as given in US10508104B2, “6-hydroxy-5-(phenyl/heteroarylsulfonyl)pyrimidin-4(1H)-one as APJ agonists” (Bristol-Myers Squibb Company, priority 2016, dated 2019).

The molecules below were run against human APJ receptor (Homo sapiens (Human), UniProt P35414) (assay: Intracellular cAMP accumulation assay (APJ hcAMP, HTRF)). Conditions: HEK293 cells stably expressing human APJ receptor; inhibition of forskolin-mediated cAMP production; read-out: Human APJ cAMP EC50 Potency range.
Assay type: cell-based
Summary of the method: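 HEK293 cells stably expressing human APJ, 5,000 per well, incubated 30 min at rt with compound, […] and 2 μM forskolin. cAMP measured by HTRF against a cAMP standard curve as inhibition of forskolin-driven production. EC50 from variable-slope sigmoidal fit.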

human APJ receptor, sequence (P35414 whole entry): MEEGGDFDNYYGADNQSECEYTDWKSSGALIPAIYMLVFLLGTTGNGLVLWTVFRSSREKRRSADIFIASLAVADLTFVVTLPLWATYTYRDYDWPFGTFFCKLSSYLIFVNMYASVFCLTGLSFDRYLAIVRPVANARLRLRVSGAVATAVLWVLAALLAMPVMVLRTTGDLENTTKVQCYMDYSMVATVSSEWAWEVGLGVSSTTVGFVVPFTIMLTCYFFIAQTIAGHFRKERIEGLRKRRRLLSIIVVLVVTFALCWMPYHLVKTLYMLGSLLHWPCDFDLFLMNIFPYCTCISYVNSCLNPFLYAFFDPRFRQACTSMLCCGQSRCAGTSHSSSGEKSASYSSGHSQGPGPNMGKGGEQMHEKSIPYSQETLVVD

First: CCCCc1nc(=O)c(S(=O)(=O)c2ccc(Br)cc2)c(O)n1[C@@H](C)c1ccccc1 [Example 118, (S)-5-((4-Bromophenyl)sulfonyl)-2-butyl-6-hydroxy-1-(1-phenylethyl)pyrimidin-4(1H)-one]
Second: COC[C@@H](c1cccc(C#N)c1)n1c(COC(C)C)nc(=O)c(S(=O)(=O)c2ccc(Br)cc2)c1O [Example 371, 3-[(1R)-1-[5-(4-bromobenzenesulfonyl)-6-hydroxy-4-oxo-2-[(propan-2-yloxy)methyl]-1,4-dihydropyrimidin-1-yl]-2-methoxyethyl]benzonitrile]
The EC50 of the first is higher: 100 to 300 nM for the first, 0.01 to 10 nM for the second. The second is the more potent here.

`CCOCc1nc(=O)c(S(=O)(=O)c2ccc(-c3ccc(F)nc3C)cc2)c(O)n1[C@@H](COC)c1cc(F)cc(F)c1` [Example 385, 1-[(1R)-1-(3,5-difluorophenyl)-2-methoxyethyl]-2-(ethoxymethyl)-5-[4-(6-fluoro-2-methylpyridin-3-yl)benzenesulfonyl]-6-hydroxy-1,4-dihydropyrimidin-4-one] and `CC[C@@H](c1cccc(C#N)c1)n1c(COC(C)C)nc(=O)c(S(=O)(=O)c2ccc(-c3ccnc(F)c3C)cc2)c1O` [Example 381, 3-[(1S)-1-{5-[4-(2-fluoro-3-methylpyridin-4-yl)benzenesulfonyl]-6-hydroxy-4-oxo-2-[(propan-2-yloxy)methyl]-1,4-dihydropyrimidin-1-yl}propyl]benzonitrile] fall in the same range of EC50: 0.01 to 10 nM for the first, 0.01 to 10 nM for the second.

`Cc1cnccc1-c1ccc(S(=O)(=O)c2c(O)n([C@H](c3cccc(C#N)c3)C3CC3)c(CC3CC3)nc2=O)cc1` [Example 496, 3-[(S)-cyclopropyl[2-(cyclopropylmethyl)-6-hydroxy-5-[4-(3-methylpyridin-4-yl)benzenesulfonyl]-4-oxo-1,4-dihydropyrimidin-1-yl]methyl]benzonitrile] and `Cc1cnccc1-c1ccc(S(=O)(=O)c2c(O)n([C@H](c3cccc(C#N)c3)C3CC3)c(COC(C)C)nc2=O)cc1` [Example 415, 3-[(S)-cyclopropyl({6-hydroxy-5-[4-(3-methylpyridin-4-yl)benzenesulfonyl]-4-oxo-2-[(propan-2-yloxy)methyl]-1,4-dihydropyrimidin-1-yl})methyl]benzonitrile] fall in the same range of EC50: 0.01 to 10 nM for the first, 0.01 to 10 nM for the second.

First: CCCCc1nc(=O)c(S(=O)(=O)c2ccc(-c3ccncc3C)cc2)c(O)n1[C@@H]1CCc2ccc(C#N)cc21 [Example 544, (3R)-3-{2-butyl-6-hydroxy-5-[4-(3-methylpyridin-4-yl)benzenesulfonyl]-4-oxo-1,4-dihydropyrimidin-1-yl}-2,3-dihydro-1H-indene-5-carbonitrile]
Second: CCCCc1nc(=O)c(S(=O)(=O)c2ccc(-c3ccnc(F)c3C)cc2)c(O)n1[C@H](c1cccc(C#N)c1)C1CC1 [Example 476, 3-[(S)-{2-butyl-5-[4-(2-fluoro-3-methylpyridin-4-yl)benzenesulfonyl]-6-hydroxy-4-oxo-1,4-dihydropyrimidin-1-yl}(cyclopropyl)methyl] benzonitrile]
The EC50 of the first is higher: 10 to 100 nM for the first, 0.01 to 10 nM for the second.

Same assay, conditions: human APJ, cAMP accumulation; read-out: Human APJ cAMP EC50 Potency range

`CCCCc1nc(=O)c(S(=O)(=O)c2ccc(-c3ccc(F)nc3)cc2)c(O)n1[C@@H](CC)c1ccccc1` [Example 289, 2-butyl-5-[4-(6-fluoropyridin-3-yl)benzenesulfonyl]-6-hydroxy-1-[(1S)-1-phenylpropyl]-1,4-dihydropyrimidin-4-one] and `CCOCc1nc(=O)c(S(=O)(=O)c2ccc(-c3ccc(F)nc3C)cc2)c(O)n1[C@@H](CC)c1ccccc1` [Example 308, 2-(ethoxymethyl)-5-[4-(6-fluoro-2-methylpyridin-3-yl)benzenesulfonyl]-6-hydroxy-1-[(1S)-1-phenylpropyl]-1,4-dihydropyrimidin-4-one] fall in the same range of EC50: 0.01 to 10 nM for the first, 0.01 to 10 nM for the second.

`CCCCc1nc(O)c(S(=O)(=O)c2ccc(Br)cc2)c(=O)n1[C@@H](CC)c1cccc(C#N)c1` [Example 223, 3-[(1S)-1-[5-(4-bromobenzenesulfonyl)-2-butyl-4-hydroxy-6-oxo-1,6-dihydropyrimidin-1-yl]propyl]benzonitrile] and `CCOCc1nc(=O)c(S(=O)(=O)c2ccc(-c3ccc(OC)nc3C)cc2)c(O)n1[C@@H](CC)c1ccccc1` [Example 309, 2-(ethoxymethyl)-6-hydroxy-5-[4-(6-methoxy-2-methylpyridin-3-yl)benzenesulfonyl]-1-[(1S)-1-phenylpropyl]-1,4-dihydropyrimidin-4-one] fall in the same range of EC50: 0.01 to 10 nM for the first, 0.01 to 10 nM for the second.

Work on `CCOCc1nc(=O)c(S(=O)(=O)c2ccc(-c3ccnc(F)c3C)cc2)c(O)n1[C@@H](COC)c1ccccc1` [Example 316, 2-(ethoxymethyl)-5-[4-(2-fluoro-3-methylpyridin-4-yl)benzenesulfonyl]-6-hydroxy-1-[(1R)-2-methoxy-1-phenylethyl]-1,4-dihydropyrimidin-4-one] yielded an EC50 of 0.01 to 10 nM.

Same assay, conditions: human APJ, intracellular cAMP accumulation; read-out: Human APJ cAMP EC50 Potency range

`CCCCc1nc(=O)c(S(=O)(=O)c2ccccc2)c(O)n1-c1c(OC)cccc1OC` [Example 2, 5-(benzenesulfonyl)-2-butyl-1-(2,6-dimethoxyphenyl)-6-hydroxy-1,4-dihydropyrimidin-4-one] and `CCCCc1nc(=O)c(S(=O)(=O)c2ccc(-c3ccccc3OC3CC3)cc2)c(O)n1-c1c(OC)cccc1OC` [Example 29] fall in the same range of EC50: 0.01 to 10 nM for the first, 0.01 to 10 nM for the second.

`CC[C@@H](c1ccccc1)n1c(CCC(C)C)nc(=O)c(S(=O)(=O)c2ccc(-c3ccnc(F)c3C)cc2)c1O` [Example 207, 5-[4-(2-fluoro-3-methylpyridin-4-yl)benzenesulfonyl]-6-hydroxy-2-(3-methylbutyl)-1-[(1S)-1-phenylpropyl]-1,4-dihydropyrimidin-4-one] and `COC[C@@H](c1ccccc1)n1c(CCC(C)C)nc(=O)c(S(=O)(=O)c2ccc(-c3cncc(F)c3)cc2)c1O` [Example 195, 5-[4-(5-fluoropyridin-3-yl)benzenesulfonyl]-6-hydroxy-1-[(1R)-2-methoxy-1-phenylethyl]-2-(3-methylbutyl)-1,4-dihydropyrimidin-4-one] fall in the same range of EC50: 0.01 to 10 nM for the first, 0.01 to 10 nM for the second.

First: CCCCc1nc(O)c(S(=O)(=O)c2ccc(Br)cc2)c(=O)n1C(C)c1cccnc1 (stereo not shown) [Example 187, 5-(4-bromobenzenesulfonyl)-2-butyl-6-hydroxy-3-[1-(pyridin-3-yl)ethyl]-3,4-dihydropyrimidin-4-one]
Second: CCCCc1nc(=O)c(S(=O)(=O)c2ccc(-c3cccnc3C)cc2)c(O)n1C(c1ccccc1)C1CC1 (stereo not shown) [Example 206, 2-butyl-1-[cyclopropyl(phenyl)methyl]-6-hydroxy-5-[4-(2-methylpyridin-3-yl)benzenesulfonyl]-1,4-dihydropyrimidin-4-one]
The EC50 of the first is higher: 100 to 300 nM for the first, 0.01 to 10 nM for the second.

`COc1cccc(OC)c1-n1c(CCC(C)C)nc(=O)c(S(=O)(=O)c2ccc(-c3ccc(C#N)nc3)cc2)c1O` [Example 17, 5-(4-{[1-(2,6-dimethoxyphenyl)-6-hydroxy-2-(3-methylbutyl)-4-oxo-1,4-dihydropyrimidin-5-yl]sulfonyl}phenyl)pyri-dine-2-carbonitrile] and `CCCCc1nc(=O)c(S(=O)(=O)c2ccc(-c3nc(C(=O)OC)c(C)s3)cc2)c(O)n1-c1c(OC)cccc1OC` [Example 84, methyl 2-(4-{[2-butyl-1-(2,6-dimethoxyphenyl)-6-hydroxy-4-oxo-1,4-dihydropyrimidin-5-yl]sulfonyl}phenyl)-5-methyl-1,3-thiazole-4-carboxylate] fall in the same range of EC50: 0.01 to 10 nM for the first, 0.01 to 10 nM for the second.

`CCCCc1nc(=O)c(S(=O)(=O)C2CCN(C(=O)c3ccc(Cl)cc3)CC2)c(O)n1-c1c(OC)cccc1OC` [Example 112, 2-butyl-5-{[1-(4-chlorobenzoyl)piperidin-4-yl]sulfonyl}-1-(2,6-dimethoxyphenyl)-6-hydroxy-1,4-dihydropyrimidin-4-one] was tested, and the EC50 was 0.01 to 10 nM.
